{
  "source": "patent US11980648B2",
  "about": "“Compositions including ginsenoside 20(S)-Rg3 and methods of using ginsenoside 20(S)-Rg3 to inhibit alpha herpesvirus” (MIDDLE TENNESSEE STATE UNIVERSITY, priority 2020, dated 2024)",
  "tested_on": "Vero cells",
  "assay": "Cytotoxicity on Vero cells (PrestoBlue)",
  "type": "cell-based",
  "details": "for Percent Cell Death: African green monkey, 48 h",
  "description": "Cells. Vero cells (American Type Culture Collection (ATCC), Manassas, VA, CCL-81) were maintained in medium 199 (Sigma Chemical Company, St. Louis, MO) that was supplemented with 8% fetal bovine serum (Invitrogen, Carlsbad, CA), 1.25 μg/mL fungizone (Invitrogen, Carlsbad, CA) and penicillin-streptomycin, 1000 U/mL and 1 mg/mL respectively (Sigma Chemical Company, St. Louis, MO). Cells were passed weekly using 0.1% trypsin (Sigma Chemical Company, St. Louis, MO) to detach the cells from the flasks. Cell quantification was done by trypan blue exclusion.\nCytotoxicity and Virus Inhibition. All ginsenosides, isomers, and protopanaxadiols were evaluated for toxic effects on Vero cells prior to anti-viral testing. Cells were seeded at 5000 cells/well in a black 96-well plate with clear bottom in a volume of 100 μL and allowed to attach for 24 hours. […] Each dilution was tested in three wells and all assays were repeated three times. Following a 48 hour-incubation at 37° C. in 5% CO2, 11 μL of PrestoBlue (Invitrogen, Carlsbad, Calif.) was added to each well and the plate was incubated for an additional 30 minutes. PrestoBlue determines cell viability by changing from blue to red as resazurin is reduced to resorufin by viable cells. Following the PrestoBlue incubation, fluorescence was determined by spectrophotometric reading using Soft Max Pro (Molecular Diagnostics, San Jose, Calif., USA).\nFor cytotoxicity testing, 4 μL of dilutions of the ginsenosides or protopanaxadiols were added to 396 μL of medium 199 and 100 μL of this mixture was added to each of three wells. For anti-viral testing, 4 μL of the non-toxic reagent and 4 μL of HSV-1 or HSV-2 diluted to an MOI of 0.1 were added to 392 μL of medium 199 and 100 μL of this mixture was added to each of three wells. Virus inhibition was determined by comparing the cell death of reagent-exposed cells with cell death of control cells only receiving virus. The 50% inhibitory concentration (IC50) was determined through a series of two-fold dilutions and calculation by linear regression analysis.",
  "note": "Marks after values point to notes of the source that are not given here.",
  "data": [
    {"smiles": "CC(C)=CCC[C@](C)(O)C1CC[C@]2(C)C1[C@H](O)CC1[C@@]3(C)CC[C@H](O[C@@H]4OC(CO)[C@@H](O)[C@@H](O)C4O[C@@H]4OC(CO)[C@@H](O)[C@@H](O)C4O)C(C)(C)C3CC[C@]12C", "note": "(stereo partly drawn) [20(S)-Rg3, 20(S)-ginsenoside-Rg3]", "values": [
      {"measurement": "Percent Cell Death", "setting": "50 μM", "result": "(13.0 ± 3.1) %"},
      {"measurement": "Percent Cell Death", "setting": "100 μM", "result": "(14.3 ± 4.5) %"},
      {"measurement": "Percent Cell Death", "setting": "125 μM", "result": "(22.3 ± 1.8) %"},
      {"measurement": "Percent Cell Death", "setting": "250 μM", "result": "(28.7 ± 1.4) ^1) %"},
      {"measurement": "IC50", "setting": "Chlorocebus sabaeus, Vero, read-out: IC50 against the host Vero cells (toxicity)", "result": "~400", "unit": "µM"}
    ]}
  ]
}
